Measured values as given in patent US7094752B2 (Chiron Corporation, priority 1997, dated 2006).

Key:
nontransfected 293 cells = assay: Adhesion of nontransfected 293 cells to fibronectin or collagen; format: cell-based
From the text: To explore whether uPAR binds to integrins, nontransfected 293 cells were allowed to adhere to fibronectin or collagen in the presence of recombinant soluble uPAR (suPAR).

[1] = target: T1, uPA1–48:uPAR complexes binding to vitronectin (Homo sapiens, UniProt Q03405); assay: Vitronectin binding assay (ELISA); conditions: 20 nM biotinylated suPAR, 20 nM uPA1–48
T1 construct: sUPAR, soluble truncated form of the urokinase receptor; made in house; host or cells: suPAR: baculovirus-infected Sf9 cells; uPA1-48: recombinant yeast; vitronectin: purified from human plasma
T1 sequence (Q03405 23-305 limits assumed, one chain of several): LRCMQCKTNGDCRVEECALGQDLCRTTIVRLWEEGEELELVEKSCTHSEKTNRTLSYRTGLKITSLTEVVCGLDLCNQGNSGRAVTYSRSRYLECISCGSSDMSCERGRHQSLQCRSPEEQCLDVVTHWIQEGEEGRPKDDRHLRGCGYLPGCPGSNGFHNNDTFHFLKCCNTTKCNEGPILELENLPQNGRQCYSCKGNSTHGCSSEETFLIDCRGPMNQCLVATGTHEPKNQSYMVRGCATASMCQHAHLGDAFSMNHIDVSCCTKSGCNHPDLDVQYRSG
Procedure: Vitronectin was purified from human plasma by the method of Yatohgo et al, Cello Struct.and Funct. 13: 281–292 (1988). Purified vitronectin was diluted to 20 μg/ml in PBS containing 1 mM CaCl2 and 0.5 mM MgCl2, dispensed at 50 μl/well into Immulon II wells (Dynatech, Chantilly, Va.), incubated overnight at 4° C. and washed with PBS/BSA. Biotinylated sUPAR was diluted to 20 nM in PBS/BSA, incubated with or without test ligand for 30 minutes at room temperature (22° C.), dispensed at 100 μl/well and incubated for 90 minutes. Wells were then washed and horseradish peroxidase (HRP)-conjugated streptavidin was added at 0.4 μg/ml in PBS/2% BSA for 1 hour followed by washing and addition of 100 μl/well TMB substrate. The color development was stopped with 100 μl of 0.8N H2SO4 and the absorbance at 450 nm measured in a 96 well plate reader (Dynatech, Chantilly, Va.). Antagonistic effects of test ligands were measured as described above except the ligands were incubated with 20 nM biotinylated suPAR in the presence of 20 nM uPA1–48.
In order to analyze the effects of the various peptide ligands on the uPAR:vitronectin interaction, we developed an in vitro ELISA based assay for this interaction, in which biotinylated suPAR and uPA1–48 bind to immobilized, urea purified vitronectin, and the bound sUPAR is detected with HRP conjugated streptavidin. Under the conditions of the assay binding of biotinylated uPAR to vitronectin is strictly dependent on uPA1–48, as shown in FIG. 1.

Mac-1 and uPAR = target: T2, Mac-1 and uPAR (Homo sapiens, UniProt Q03405); assay: Mac-1/uPAR interaction in U937 cell line; format: cell-based; conditions: 100 μM
T2 construct: endogenous in cells; host or cells: U937 cell line
T2 sequence (Q03405 23-305 limits assumed): as the sequence (Q03405 23-305 limits assumed, one chain of several) above

sUPAR domain 2–3 (D23) = target: T3, sUPAR domain 2–3 (D23) (Homo sapiens, UniProt Q03405); assay: Bacteriophage binding to sUPAR domain 2/3; conditions: phage-displayed peptide
T3 construct: domains 2 and 3 (amino acids 93–313); made in house; host or cells: baculovirus infected Sf9 insect cells
T3 sequence (Q03405 115-335): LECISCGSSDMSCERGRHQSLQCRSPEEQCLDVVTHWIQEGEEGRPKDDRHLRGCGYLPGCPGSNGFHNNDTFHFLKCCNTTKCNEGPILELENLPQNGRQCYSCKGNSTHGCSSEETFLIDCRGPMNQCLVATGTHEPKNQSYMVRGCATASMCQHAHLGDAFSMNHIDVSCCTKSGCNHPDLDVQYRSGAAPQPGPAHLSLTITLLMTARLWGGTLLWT
Procedure: FIG. 5. Bacteriophage binding to sUPAR domain 2/3. Phage were added to wells containing sUPAR domain 2/3 immobilized by its epitope tag via protein G and monoclonal antibody to the epitope tag. Wells containing protein G and antibody but no domain 2/3 were included to determine nonspecific phage binding. Urea-eluted phage and the input stocks were titered by plaque formation assay. Results were single point determinations calculated as a percent of the input titer and were repeated in three separate experiments.
It was also shown by the inventors that bacteriophage bound to sUPAR domain 2–3fragment. Protein G, 100μl, 1 mg/ml in 50 mM Na2CO3, pH9.6, was added to MaxiSorp wells, incubated overnight at 4° C. and then washed with PBS/BSA. Fifty μl of monoclonal antibody to the epitope tag EYMPME (SEQ ID NO: 18) was added at 1 mg/ml in PBS/BSA and incubated for 2 hours at room temperature. The wells were washed, recombinant sUPAR domain 2–3 (1.7 μM in PBS/BSA) was added and incubated for 1.5 hours at room temperature. The wells were washed prior to the addition of bacteriophage (approximately 10^8 pfu), and then treated as described in the previous section for binding to suPAR.

[2] = target: T4, β1/caveolin/uPAR complexes (Homo sapiens, UniProt Q03405); assay: Immunoprecipitation of uPAR with β1 / caveolin; format: cell-based; conditions: 100 μM, co-immunoprecipitation
T4 construct: The full length cDNA for the human urokinase receptor; expressed in transfected cells; host or cells: 293 embryonic kidney cells stably expressing GPI-uPAR
T4 sequence (Q03405 23-305, one chain of several): as the sequence (Q03405 23-305 limits assumed, one chain of several) above
Procedure: When triton X 100 (0.2%) insoluble fraction of GPI-uPAR 293 cells is solubilized in polar detergents, immunoprecipitation of β1 clearly co-precipitates uPAR as described in Filardo et al, J. Cell. Biol. 1995, in press: Cells (5×10^6) were cultured overnight, washed twice with microtubule stabilization buffer (0.1M PIPES, pH 6.9, 2M glycerol, 1 mM EDTA, and 1 mM magnesium acetate), and then extracted on ice for 5 minutes in buffer containing 0.2% Triton X 100 and inhibitors (1 mM sodium orthovandate, 1 mM phenylsulfonyl fluoride, […] leupeptin). The insoluble residues were solubolized at 4° C. for 20 minutes in 1× RIPA buffer (150 mM sodium chloride, 50 mM Tris-HCl, pH 7.5, 1% deoxycholate, 0.1% sodium dodecyl sulfate, 1% Triton X-100) supplemented with protease inhibitors. The triton soluble fraction was diluted 1:1 with 2× RIPA buffer. Both fractions were centrifuged for 10 minutes at 6000 rpm, and then precleared by incubation with nonimmune serum and protein A-agarose for 2 hours at 4° C.
Supernatants were transferred to fresh tubes and incubated with antibodies against β1 or caveolin for 2 hours at 4° C. Immune complexes were recovered with protein A-agarose. The washed immunoprecipitates were subjected to 8% SDS-PAGE, and transferred onto a nitrocellulose membrane. […]

## H-AESTYHHLSLGYMYTLN-NH2 [peptide 25]
Nontransfected 293 cells; 100 μM peptide
  reversal of suPAR inhibition of adhesion to fibronectin and collagen: reversible
Nontransfected 293 cells; peptide alone
  adhesion to fibronectin by nontransfected 293 cells: no effect
[1]
  effect on binding of uPA1–48:uPAR complexes to vitronectin: little or no effect
Mac-1 and uPAR
  interaction between Mac-1 and uPAR: abrogated the interaction
sUPAR domain 2–3 (D23); listed as bacteriophage 25
  bacteriophage binding to immobilized D23 versus sUPAR: equivalent binding to D23 and suPAR
sUPAR domain 2–3 (D23); listed as clone 25
  bacteriophage binding to immobilized D23 versus sUPAR: bind equivalently to the D23 fragment and full-length receptor
[2]
  disruption of β1/caveolin/uPAR complexes: largely disrupted
